What was measured:
Experiment in all cases: Bliss excess, mean over the matrix (fraction); higher = more synergy
[1] = tested on: 23132-87 (Gastric Carcinoma)
Summary of the method: (§1)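 Cell lines in DMEM/F12 or RPMI with 10% FBS were plated in 1536-well plates, held 24 hours at 37°C, 5% CO2, then given two-drug dose matrices for 72 hours (DMSO typically 0.2%). Viability was read by CellTiter-Glo 2.0 luminescence and scaled as inhibition from 0 (vehicle wells) to 1 (blank wells). Combination Emax is the second-highest inhibition in the matrix; Bliss excess is observed combination effect minus expected EA + EB − EA·EB, EA and EB being single-agent effects.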

[2] = tested on: CAL-120 (Breast Carcinoma)
Summary of the method: as §1

GB-1 (Glioblastoma) = tested on: GB-1 (Glioblastoma)
Summary of the method: as §1

[3] = tested on: HCT-15 (Colorectal Carcinoma)
Summary of the method: as §1

[4] = tested on: HSC-39 (Gastric Carcinoma)
Summary of the method: as §1

[5] = tested on: L-1236 (Hodgkin's Lymphoma)
Summary of the method: as §1

[6] = tested on: LB996-RCC (Kidney Carcinoma)
Summary of the method: as §1

[7] = tested on: LXF-289 (Lung Adenocarcinoma)
Summary of the method: as §1

[8] = tested on: OPM-2 (Plasma Cell Myeloma)
Summary of the method: as §1

[9] = tested on: OVMIU (Ovarian Carcinoma)
Summary of the method: as §1

[10] = tested on: PSN1 (Pancreatic Carcinoma)
Summary of the method: as §1

[11] = tested on: RCM-1 (Colorectal Carcinoma)
Summary of the method: as §1

[12] = tested on: REH (B-Lymphoblastic Leukemia)
Summary of the method: as §1

[13] = tested on: RERF-GC-1B (Gastric Carcinoma)
Summary of the method: as §1

[14] = tested on: RKN (Other Solid Carcinomas)
Summary of the method: as §1

[15] = tested on: SU-DHL-10 (B-Cell Non-Hodgkin's Lymphoma)
Summary of the method: as §1

[16] = tested on: TE-8 (Esophageal Squamous Cell Carcinoma)
Summary of the method: as §1

[17] = tested on: VAL (B-Cell Non-Hodgkin's Lymphoma)
Summary of the method: as §1

WM278 (Melanoma) = tested on: WM278 (Melanoma)
Summary of the method: as §1

[18] = tested on: CAL-62 (Thyroid Gland Carcinoma)
Summary of the method: as §1

Cc1c2c(nn1C)CSCc1cc(n(C)n1)CSc1cc(c3ccccc3c1)OCCCc1c(C(=O)O)n(C)c3c-2c(Cl)ccc13 [AZD5991] + C1CN(CCC1(C(=O)N[C@@H](CCO)C2=CC=C(C=C2)Cl)N)C3=NC=NC4=C3C=CN4 [Capivasertib] (first compound max 1 µM, 7x7, partner max 3 µM)
Bliss excess [1]: -0.0492
Bliss excess [2]: 0.0424
Bliss excess (GB-1 (Glioblastoma)): -0.0365
Bliss excess [3]: 0.002
Bliss excess [4]: 0.0308
Bliss excess [5]: 0.0039
Bliss excess [6]: 0.0013
Bliss excess [7]: 0.042
Bliss excess [8]: -0.0121
Bliss excess [9]: 0.0023
Bliss excess [10]: -0.0533
Bliss excess [11]: 0.0005
Bliss excess [12]: -0.0557
Bliss excess [13]: -0.0124
Bliss excess [14]: -0.0234
Bliss excess [15]: -0.0047
Bliss excess [16]: 0.0306
Bliss excess [17]: -0.0223
Bliss excess (WM278 (Melanoma)): -0.0498

Cc1c2c(nn1C)CSCc1cc(n(C)n1)CSc1cc(c3ccccc3c1)OCCCc1c(C(=O)O)n(C)c3c-2c(Cl)ccc13 [AZD5991] + CN(C)CCCOc1ccc(-c2ccc3ncc4c(c3c2)n(C2CCOCC2)c(=O)n4C)cn1 [AZD0156] (first compound max 1 µM, 7x7, partner max 1 µM)
Bliss excess [1]: -0.0643
Bliss excess [2]: -0.036
Bliss excess [18]: -0.0061
Bliss excess (GB-1 (Glioblastoma)): 0.0075
Bliss excess [3]: 0.0369
Bliss excess [4]: -0.0201
Bliss excess [5]: 0.0295
Bliss excess [6]: -0.0569
Bliss excess [7]: 0.0472
Bliss excess [8]: -0.0241
Bliss excess [9]: -0.0328
Bliss excess [11]: -0.0105
Bliss excess [12]: -0.0321
Bliss excess [13]: 0.0263
Bliss excess [14]: 0.0006
Bliss excess [15]: -0.0258
Bliss excess [16]: -0.0172
Bliss excess [17]: -0.0034
Bliss excess (WM278 (Melanoma)): -0.0196

Cc1c2c(nn1C)CSCc1cc(n(C)n1)CSc1cc(c3ccccc3c1)OCCCc1c(C(=O)O)n(C)c3c-2c(Cl)ccc13 [AZD5991] + C[C@@H]1COCCN1C2=NC(=NC(=C2)C3(CC3)[S@](=N)(=O)C)C4=C5C=CNC5=NC=C4 [AZD6738] (first compound max 1 µM, 7x7, partner max 10 µM)
Bliss excess [1]: -0.009
Bliss excess [2]: 0.0621
Bliss excess [18]: 0.0278
Bliss excess (GB-1 (Glioblastoma)): 0.0116
Bliss excess [3]: 0.0431
Bliss excess [4]: -0.0026
Bliss excess [5]: 0.104
Bliss excess [6]: 0.0301
Bliss excess [7]: 0.0667
Bliss excess [8]: 0.0291
Bliss excess [9]: -0.0037
Bliss excess [10]: -0.0143
Bliss excess [11]: -0.0371
Bliss excess [12]: -0.0519
Bliss excess [14]: 0.0098
Bliss excess [15]: -0.0128
Bliss excess [16]: 0.0197
Bliss excess [17]: -0.0898
Bliss excess (WM278 (Melanoma)): 0.0307

Cc1c2c(nn1C)CSCc1cc(n(C)n1)CSc1cc(c3ccccc3c1)OCCCc1c(C(=O)O)n(C)c3c-2c(Cl)ccc13 [AZD5991] + C[C@@H](Nc1cc(F)cc(F)c1)c1cc(C(=O)N(C)C)cc2c(=O)cc(N3CCOCC3)oc12 [AZD8186] (first compound max 1 µM, 7x7, partner max 3 µM)
Bliss excess [1]: -0.0603
Bliss excess [2]: -0.0318
Bliss excess (GB-1 (Glioblastoma)): -0.0152
Bliss excess [3]: -0.01
Bliss excess [4]: -0.0069
Bliss excess [5]: 0.0233
Bliss excess [6]: 0.0208
Bliss excess [7]: -0.0127
Bliss excess [8]: -0.0104
Bliss excess [9]: -0.0181
Bliss excess [10]: -0.0407
Bliss excess [11]: -0.0102
Bliss excess [12]: -0.024
Bliss excess [13]: -0.0188
Bliss excess [14]: -0.0269
Bliss excess [15]: 0.0239
Bliss excess [16]: -0.013
Bliss excess [17]: 0.0426
Bliss excess (WM278 (Melanoma)): 0.0096

CS(=O)(=O)CCNCc1ccc(-c2ccc3ncnc(Nc4ccc(OCc5cccc(F)c5)c(Cl)c4)c3c2)o1 [Lapatinib] + Cn1cnc2c(F)c(Nc3ccc(Br)cc3Cl)c(C(=O)NOCCO)cc21 [Selumetinib] (first compound max 10 µM, 7x7, partner max 10 µM)
Bliss excess [18]: -0.0284
Bliss excess [4]: -0.0089
Bliss excess [5]: -0.0646
Bliss excess [8]: -0.0294
Bliss excess [9]: -0.102
Bliss excess [10]: -0.0544
Bliss excess [11]: 0.0661
Bliss excess [12]: -0.0363
Bliss excess [14]: -0.0081
Bliss excess [16]: -0.0505
Bliss excess [17]: -0.0549

CS(=O)(=O)CCNCc1ccc(-c2ccc3ncnc(Nc4ccc(OCc5cccc(F)c5)c(Cl)c4)c3c2)o1 [Lapatinib] + NC1(c2ccc(-c3nc4ccn5c(=O)[nH]nc5c4cc3-c3ccccc3)cc2)CCC1 [MK-2206] (first compound max 10 µM, 7x7, partner max 10 µM)
Bliss excess [18]: -0.0034
Bliss excess [4]: 0.104
Bliss excess [5]: 0.0138
Bliss excess [8]: 0.0183
Bliss excess [9]: 0.0659
Bliss excess [10]: 0.0205
Bliss excess [11]: -0.0323
Bliss excess [12]: 0.0194
Bliss excess [13]: 0.0194
Bliss excess [14]: -0.0169
Bliss excess [16]: -0.0004
Bliss excess [17]: -0.0147

CCc1c2c(nc3ccc(O)cc13)-c1cc3c(c(=O)n1C2)COC(=O)[C@]3(O)CC [SN-38] + O=C(c1cc(Cc2n[nH]c(=O)c3ccccc23)ccc1F)N1CCN(C(=O)C2CC2)CC1 [Olaparib] (first compound max 0.3 µM, 7x7, partner max 10 µM)
Bliss excess [1]: 0.0174
Bliss excess [2]: 0.0417
Bliss excess [18]: 0.0139
Bliss excess (GB-1 (Glioblastoma)): 0.0539
Bliss excess [3]: 0.0754
Bliss excess [4]: -0.0724
Bliss excess [5]: 0.0111
Bliss excess [6]: -0.0651
Bliss excess [8]: 0.0082
Bliss excess [9]: 0.0409
Bliss excess [10]: 0.0329
Bliss excess [11]: -0.0176
Bliss excess [12]: 0.0473
Bliss excess [14]: 0.0145
Bliss excess [16]: 0.0202
Bliss excess [17]: 0.036
Bliss excess (WM278 (Melanoma)): 0.0486

C[C@@H](c1ccc2nccn2c1)n1nnc2ncc(-c3cnn(C)c3)nc21 [Savolitinib] + CN(CC[C@H](CSC1=CC=CC=C1)NC2=C(C=C(C=C2)S(=O)(=O)NC(=O)C3=CC=C(C=C3)N4CCC(CC4)[C@H](C5=CC=CC=C5C6=CC=C(C=C6)Cl)O)S(=O)(=O)C(F)(F)F)CCO [AZD4320] (first compound max 1 µM, 7x7, partner max 1 µM)
Bliss excess [1]: -0.0618
Bliss excess [2]: -0.0325
Bliss excess (GB-1 (Glioblastoma)): -0.0653
Bliss excess [3]: -0.0274
Bliss excess [6]: -0.0392
Bliss excess [7]: -0.0203
Bliss excess [13]: -0.0404
Bliss excess [15]: -0.0067
Bliss excess (WM278 (Melanoma)): -0.0406

Reference: the supplement of paper PMC11061612
